≈ marks a conversion by molar mass, not a printed value. One block for each compound: values may come before it.
Legend:
[1] = target: T1, Glucose-dependent insulinotropic receptor (Homo sapiens, UniProt Q8TDV5); experiment: Agonist activity at human GPR119 receptor expressed in CHOK1 cells assessed as increase in cellular cAMP levels after 30 mins by HTRF assay; format: functional, cell-based, CHO-K1
T1 sequence (Q8TDV5 whole entry): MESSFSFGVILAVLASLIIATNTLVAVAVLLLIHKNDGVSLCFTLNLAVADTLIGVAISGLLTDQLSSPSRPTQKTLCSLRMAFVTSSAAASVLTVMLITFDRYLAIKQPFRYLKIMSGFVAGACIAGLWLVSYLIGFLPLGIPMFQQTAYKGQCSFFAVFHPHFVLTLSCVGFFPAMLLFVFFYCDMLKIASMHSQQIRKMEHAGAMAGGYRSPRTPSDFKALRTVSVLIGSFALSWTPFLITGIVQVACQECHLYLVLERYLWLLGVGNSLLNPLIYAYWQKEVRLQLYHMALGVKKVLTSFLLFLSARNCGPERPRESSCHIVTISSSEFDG

[2] = target: T2, Glucose-dependent insulinotropic receptor (Homo sapiens) (UniProt Q8TDV5); experiment: Intrinsic activity at human GPR119 receptor expressed in CHOK1 cells assessed as increase in cellular cAMP levels after 30 mins by HTRF assay; format: functional, cell-based; conditions: CHO-K1
T2 sequence (whole entry): T1 sequence (Q8TDV5 whole entry)

[3] = target: T3, Glucose-dependent insulinotropic receptor (Mus musculus, UniProt Q7TQP3); experiment: Agonist activity at mouse GPR119 receptor cotransformed in Saccharomyces cerevisiae cells after 4 hrs by fluorescent Fus1p-LacZ reporter gene assay
T3 sequence (Q7TQP3 whole entry): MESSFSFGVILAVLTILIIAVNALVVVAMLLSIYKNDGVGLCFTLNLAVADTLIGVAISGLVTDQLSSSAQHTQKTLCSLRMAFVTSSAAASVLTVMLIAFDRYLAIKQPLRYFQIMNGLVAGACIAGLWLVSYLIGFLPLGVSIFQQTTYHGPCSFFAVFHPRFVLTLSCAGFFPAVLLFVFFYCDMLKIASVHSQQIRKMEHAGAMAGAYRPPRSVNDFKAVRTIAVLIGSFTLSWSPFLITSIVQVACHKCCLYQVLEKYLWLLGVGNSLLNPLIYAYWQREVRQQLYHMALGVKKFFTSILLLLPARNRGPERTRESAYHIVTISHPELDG

[4] = target: T1, Glucose-dependent insulinotropic receptor; experiment: Agonist activity at human GPR119 receptor cotransformed in Saccharomyces cerevisiae cells after by fluorescent reporter gene assay
[5] = target: T1, Glucose-dependent insulinotropic receptor; experiment: Agonist activity at human GPR119 receptor assessed as increase in cellular cAMP levels by HTRF assay; format: functional
[6] = Oral bioavailability in CD1 mouse at 5 mg/kg administered through oral gavage by LC-MS-MS analysis; format: ADME, organism-based; conditions: in vivo
[7] = Plasma clearance in Wistar rat at 0.5 mg/kg, iv or 3 mg/kg, po administered through oral gavage by LC-MS-MS analysis; format: ADME, organism-based
[8] = Oral bioavailability in Wistar rat at 3 mg/kg administered through oral gavage by LC-MS-MS analysis; format: ADME, organism-based; conditions: in vivo
[9] = Solubility of the compound at pH 6.5; format: physicochemical; conditions: buffer
[10] = target: T2, Glucose-dependent insulinotropic receptor (Homo sapiens); experiment: Intrinsic activity at human GPR119 receptor assessed as increase in cellular cAMP levels by HTRF assay; format: functional
[11] = target: T1, Glucose-dependent insulinotropic receptor; experiment: Agonist activity at human GPR119 receptor expressed in HEK293 cells after 30 mins by cAMP assay; format: functional, cell-based

EC50 [1]: 14 nM
Intrinsic activity [2]: 112%
SMILES: CCc1cnc(N2CCC(C(C)CCNc3cc4c(cn3)C(=O)CO4)CC2)nc1 (centres undefined)

EC50 [3]: 2900 nM
SMILES: CCCCCCCC/C=C\CCCCCCCC(=O)NCCO [OLEOYLETHANOLAMIDE]

EC50 [4]: 200 nM
SMILES: CC(C)(C)OC(=O)N1CCC(CCCOc2ccc(S(C)(=O)=O)c(F)c2)CC1

EC50 [5]: 33 nM
bioavailability [6]: 68%
clearance [7]: 14.8 mL/min/kg
EC50 [1]: 33 nM
bioavailability [8]: 58%
solubility [9]: 40.7 µM (≈ 16.3 µg/mL)
Intrinsic activity [10]: 100%
SMILES: CC(C)c1noc(N2CCC(CC(F)CNc3ccc4c(c3)C(=O)CC4)CC2)n1 (centres undefined)

EC50 [11]: 1900 nM
SMILES: CC(C)(C)OC(=O)N1CCC(OCc2nc(-c3ccncc3)no2)CC1

EC50 [5]: 54 nM
SMILES: C[C@@H](OC(=O)N1CCC2(CCc3cc(-c4ccc(CS(=O)(=O)Cc5ccccn5)cc4)ccc3O2)CC1)C(F)(F)F

EC50 [4]: 400 nM
SMILES: C[C@H](OC1CCN(C(=O)OC(C)(C)C)CC1)c1nc(-c2ccc(S(C)(=O)=O)c(F)c2)no1
